{"source": "patent US20230210831A1", "about": "“CHRONIC KIDNEY DISEASE TREATMENT OR PREVENTION METHOD” (Japan Tobacco Inc., priority 2019, published 2023)", "key": {"human SGLT1": {"molecular_target": "T1, human SGLT1 (Homo sapiens, UniProt P13866)", "T1 construct": "expressed in transfected cells; PCR template pCMV6-hSGLT1 (OriGene)", "T1 sequence (P13866 1-664)": "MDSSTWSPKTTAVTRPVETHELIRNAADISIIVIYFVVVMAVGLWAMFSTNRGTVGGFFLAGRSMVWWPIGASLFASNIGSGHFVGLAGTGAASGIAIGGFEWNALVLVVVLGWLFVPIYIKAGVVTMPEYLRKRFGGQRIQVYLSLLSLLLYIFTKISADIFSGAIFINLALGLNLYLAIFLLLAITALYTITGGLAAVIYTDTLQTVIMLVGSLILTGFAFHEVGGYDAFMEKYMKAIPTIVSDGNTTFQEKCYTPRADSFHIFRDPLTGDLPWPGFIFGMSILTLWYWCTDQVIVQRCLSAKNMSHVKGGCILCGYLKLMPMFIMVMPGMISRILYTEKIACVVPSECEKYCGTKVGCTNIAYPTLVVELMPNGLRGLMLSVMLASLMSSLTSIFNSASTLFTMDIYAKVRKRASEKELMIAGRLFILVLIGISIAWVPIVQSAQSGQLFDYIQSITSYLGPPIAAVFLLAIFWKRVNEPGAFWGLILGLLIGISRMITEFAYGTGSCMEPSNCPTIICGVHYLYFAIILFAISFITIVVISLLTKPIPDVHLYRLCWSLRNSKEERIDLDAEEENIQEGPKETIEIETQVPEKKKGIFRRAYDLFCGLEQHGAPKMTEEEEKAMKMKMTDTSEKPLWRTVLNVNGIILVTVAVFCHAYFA", "test": "Assessment of SGLT1 inhibitory activity (14C-AMG uptake in human SGLT1-stably-expressing CHO-K1 cells)", "type": "cell-based", "protocol": "SGLT1 inhibitory activities of test compounds (IC50 values) were calculated based on the amount of intracellular uptake of labelled α-methyl-D-glucopyranoside (^14C-AMG) transported by SGLT1.\nA DNA fragment containing human SGLT1 was amplified by PCR (Polymerase Chain Reaction) using pCMV6-hSGLT1 (OriGene) as a template. In the human SGLT1, NheI recognition and cleavage sequence was added to the upstream of Kozac consensus sequence derived from a vector, and a stop codon, TAG, and SalI recognition and cleavage sequence were added to the immediate downstream of the protein-translating region of human SGLT1. […]\nHuman SGLT1-stably-expressing cell lines were seeded at 5 x 10^4 cells/well on BioCoat™ Poly-D-Lysine 96 well plate with Lid (Becton, Dickinson and Company) and cultured at 37° C. under 5% CO2 overnight. […] In the assessment for the uptake ability of 14C-AMG, the total amount of the cell lysate was transferred to OptiPlate 96 (Perkin-Elmer) with 100 µL/well of MicroScint-40 (Perkin-Elmer) dispensed and ^14 C of CPM was measured with TOPCOUNT NXT (Perkin-Elmer).\nData was calculated by deducting the average value of CPM for blank well from the average value of CPM for each well treated. An inhibition rate for each test compound in each concentration was calculated from the following equation: […]"}, "glucose-loaded SD rats [1]": {"test_system": "glucose-loaded SD rats", "test": "OGTT (oral glucose tolerance test), Test Example 2", "type": "in vivo, rat", "conditions": "1, 3, or 10 mg/kg orally 16 hours before glucose load; male SD rats; compared to vehicle", "protocol": "Vehicle (0.5% methylcellulose solution) or Compound 1 (1, 3, or 10 mg/kg) suspended in a 0.5% methylcellulose solution was orally administered in 5 mL/kg to an about 4-hour-fasted male SD rat (8-week old, Nihon Charles River K.K., 6 cases for each group).\nStatistical analyses were based on Steel’s multiple test. The significance level was two-sided 5%."}, "glucose-loaded SD rats [2]": {"test_system": "glucose-loaded SD rats", "test": "OGTT (oral glucose tolerance test), Test Example 3", "type": "in vivo, rat", "conditions": "3 mg/kg orally 16 hours before glucose load; male SD rats; compared to vehicle", "protocol": "Vehicle (0.5% methylcellulose solution), or Compound 1, Compound A, or Compound B (3 mg/kg each) suspended in a 0.5% methylcellulose solution was orally administered in 5 mL/kg to an about 4-hour-fasted male SD rat (8-week old, Nihon Charles River K.K., 5 cases for each group).\nStatistical analyses were based on Dunnett’s multiple group test. The significance level was two-sided 5%."}, "SDT fatty rats": {"test_system": "SDT fatty rats", "test": "Assessment of renal protective effect (GFR in SDT fatty rats)", "type": "in vivo, rat", "conditions": "2 mg/kg orally once a day, 16 weeks; male SDT fatty rats", "protocol": "Vehicle (0.5% methyl cellulose solution), Compound 1 (2 mg/kg), or dapagliflozin (0.3 mg/kg) was orally administered once a day to male SDT fatty rats (7-week old, CLEA Japan, Inc.); and as a normal control, vehicle was orally administered once a day to male SD rats (7-week old, CLEA Japan, Inc.). 16 Weeks after the administration, GFR (mL/min/100 g B.W.) was measured with a transdermal GFR monitor (MediBeacon). For statistical analysis, Student’s test was conducted between the vehicle-administered group of SD rats and the vehicle-administered group of SDT fatty rats. Dunnett’s multiple test was conducted for the Compound 1 and dapagliflozin groups to the vehicle group of SDT fatty rats. The significance level was two-sided 5%."}, "⅚-kidney-removed rats": {"test_system": "⅚-kidney-removed rats", "test": "Assessment of renal protective effect 2 (⅚-kidney-removed rats)", "type": "in vivo, rat", "conditions": "2 mg/kg/day mixed with feed, vs vehicle-administered group", "protocol": "7-Week old male Wistar rats (Japan SLC, Inc.) were treated by removing ⅔ of the left kidney under isoflurane anesthesia and then removing the whole right kidney one week later to prepare ⅚-kidney-removed rats. Compound 1 (2 mg/kg/day) mixed with feed was orally administered to the rats from the age of 9 weeks. As a normal control, male Wistar rats at the same age were set as a sham group. […] For statistical analysis, Student’s test was conducted between the vehicle-administered group and the Compound 1-administered group. […] For statistical analysis, Student’s test or Aspin-Welch was conducted."}}, "data": [{"smiles": "C[C@H]1C(=O)NC[C@@H]1C(=O)Nc1cc(-c2cc(F)cc(OC(C)(C)C)c2)n(C(F)(F)F)n1", "note": "[Compound 1, (3R,4R)-N-(5-(3-(tert-butoxy)-5-fluorophenyl)-1-(trifluoromethyl)-1H-pyrazol-3-yl)-4-methyl-5-oxopyrrolidine-3-carboxamide]", "values": [{"measurement": "SGLT1 inhibitory activity", "setting": "human SGLT1", "value": "confirmed to have the SGLT1 inhibitory activity"}, {"measurement": "blood glucose level after the glucose load (Δ AUC to 120 minutes, % of Vehicle)", "setting": "glucose-loaded SD rats [1]", "value": "significantly reduced"}, {"measurement": "blood glucose level after the glucose load (Δ AUC to 120 minutes, % of Vehicle)", "setting": "glucose-loaded SD rats [2]", "value": "significantly reduced"}, {"measurement": "GFR", "setting": "SDT fatty rats", "value": "inhibited the increase of GFR"}, {"measurement": "protein quantity in the urine", "setting": "⅚-kidney-removed rats", "value": "lower than those of the vehicle-administered group"}, {"measurement": "urea nitrogen level", "setting": "⅚-kidney-removed rats", "value": "significantly lower than those of the vehicle-administered group"}]}]}
